Key:
blood glucose level = test: Hypoglycemic activity in hyperglycemic KK mice (blood glucose level); type: in vivo, male mice of the KK strain; details: 1 mg/kg oral, 18 hours, vs solvent-only group
Protocol: The test animals used were hyperglycemic male mice of the KK strain, each having a body weight of at least 40 g. The compounds under test were mixed with a 1:1 by volume mixture of polyethylene glycol 400 and water. Each animal was orally administered a test compound in the amount shown in the following Table 6 and then allowed to feed freely for 18 hours. At the end of this time, blood was collected from the tail veins without anesthesia. The blood glucose level (BGL) was determined by means of a glucose analyzer (GL-101, manufactured by Mitsubishi Kasei Co. or a Glucoroder-F manufactured by Shino Test Co.). The hypoglycemic effect was calculated by the following equation: Hypoglycemic effect (%)=[(BGLs -BGLt)/BGLs ]×100 where: BGLs is the blood glucose level in the group administered a solvent only, but no active compound; and BGLt is the blood glucose level in the group administered a test compound. The results are shown in the following Table 6, in which each compound of the present invention is identified by the number of one of the following Examples in which its preparation is illustrated.

[1] = molecular target: T1, Bovine lens aldose reductase (Bos taurus, UniProt P16116); test: Inhibition of Aldose reductase; type: biochemical; details: for inhibition at 5 µg/mL: read-out: Inhibition (%) at 5 μg/ml
T1 construct: Bovine lens aldose reductase was separated and partially purified; from tissue; host or cells: bovine lens
Protocol: Bovine lens aldose reductase was separated and partially purified by the method of S. Hyman and J. H. Kinoshita [J. Biol. Chem. 240, 877 (1965)] and K. Inagaki, I. Miwa and J. Okuda [Arch. Biochem. Biophys., 216, 337 (1982)], and its activity was determined photometrically by the method of Varma et al. [Biochem. Pharmac., 25, 2505 (1976)]. Inhibition of enzyme activity was measured for the compounds of the present invention at a concentration of 5 μg/ml, and the measured values were used to calculate the IC50 values.

IC50 [1] | inhibition at 5 µg/mL [1] | Structure (SMILES) | Hypoglycemic effect (%) (blood glucose level)
 |  | COc1ccc2nc(COc3ccc(CC4SC(=O)NC4=O)cc3)n(C)c2c1 (centres unmarked) [Example 2, 5-[4-(6-Methoxy-1-methylbenzimidazol-2-ylmethoxy)benzyl]thiazolidine-2,4-dione] | 27.2%
3.29 µM | 79.6% | Cc1c(O)c(C)c2nc(COc3ccc(CC4SC(=O)NC4=O)cc3)n(C)c2c1C (centres unmarked) [Example 3, 5-[4-(5-Hydroxy-1,4,6,7-tetramethylbenzimidazol-2-ylmethoxy)benzyl]thiazolidine-2,4-dione] | 11.2%
 |  | Cc1c(O)c(C)c2nc(COc3ccc(CC4SC(=O)NC4=O)cc3)n(C)c2c1C.Cl (centres unmarked) [Example 4, 5-[4-(5-Hydroxy-1,4,6,7-tetramethylbenzimidazol-2-ylmethoxy)benzyl]thiazolidine-2,4-dione hydrochloride] | 19.3%
2.1 µM | 80.3% | Cn1c(COc2ccc(CC3SC(=O)NC3=O)cc2)nc2ccccc21 (centres unmarked) [Example 1, 5-[4-(1-Methylbenzimidazol-2-ylmethoxy)benzyl]thiazolidine-2,4-dione] | 36.2%

From patent publication US5886014A, “Benzimidazole derivatives, their preparation and their therapeutic use” (Sankyo Company, Limited, priority 1995, dated 1999)
